According to patent US20080267861A1, “Myocardial Perfusion Imaging” (CV THERAPEUTICS, INC., priority 2007, published 2008):

Legend:
[1] = test system: patients requiring pharmacologic MPI; experiment: SPECT myocardial perfusion imaging: heart-to-background ratios, image quality, perfusion defects; type: in vivo, human; conditions: for heart-to-gut ratio, mean (SD) / heart-to-liver ratio, mean (SD) / heart-to-liver+gut ratio, mean (SD): 39 patients undergoing both scans, 99mTc-Sestamibi
Description: (§1) In this multicenter study, subjects requiring pharmacologic MPI based on clinical criteria received adenosine infusion (Astellas Pharma, Inc.), 140 mcg/kg/min over 6 min in the supine position (AdenoSup), following enrollment and were then randomized (2:1) in a double-blind manner to a novel protocol (RegEx) consisting of 4 min of sub-maximal exercise (1.7 mph at 0% grade) with bolus intravenous injection of 400 mcg Regadenoson at 1.5 min and ^99mTechnetium-Sestamibi at 2 min or matching placebos (PlcEx).
Prior to randomization, patients were stratified based on the presence of reversible perfusion defects, defined as a two or more segments with a stress score >rest score and a stress score >2 on a 5-category scale, as interpreted by a board-certified nuclear cardiologist at each site. The 5-category scale, used both for stratifying patients and for evaluation of perfusion defects on study, was as follows: 0=normal; 1=mild reduction in tracer uptake, not definitely abnormal; 2=moderate reduction in uptake, definitely abnormal; 3=severe reduction in uptake; 4=absent uptake.
(§2) The primary objective was to assess the overall safety of Regadenoson in patients undergoing low-level stress by comparing hemodynamic, cardiac rhythm and adverse effects of the 3 protocols. In addition, patient acceptance was determined by comparing patient comfort and test protocol preference using questionnaires. Three blinded expert readers independently interpreted randomly presented perfusion scans at a nuclear core lab (Services NucMed, Montreal, Canada). Image quality was compared between AdenoSup and RegEx by computation of heart-to-liver and heart-to-gut ratios and the readers' visual assessment of overall image quality and image quality with respect to subdiaphragmatic interference specifically. A 17-segment MPI model was used by the core lab readers, to compare the extent of the perfusion defect between RegEx and AdenoSup quantitatively and also qualitatively with side-by-side visual comparison. Patients were required to abstain from methylxanthine-containing foods and beverages for 12 hours prior to receiving study drug and adenosine. The protocol was approved by an institutional review board and all patients provided written informed consent.
Nuclear imaging was performed using either a dual isotope protocol or a two-day ^99mTechnetium-Sestainibi protocol at the investigators' discretion. However, men with body weight >220 pounds and body mass index >30 kg/m2 and women with body weight >200 pounds and body mass index >30 kg/m2 were to undergo the two day protocol. The single photon emission computed tomography (SPECT) imaging was standardized for image acquisition and transmittal in accordance with the American Society of Nuclear Cardiology guidelines. The protocol required an extra ˜8 mSv radiation to the patients in the study arm, and none to the patients in the control (placebo exercise) arm.
The dual isotope protocol was performed over 2 separate days. On the first day, patients were to have a rest scan with ^201Thallium followed by a ^99mTechnetium-Sestamibi adenosine-supine MPI; on a subsequent day, patients underwent a ^99mTechnetium-Sestamibi study drug (i.e., regadenoson or placebo) sub-maximal treadmill exercise MPI.
The multi-day ^99mTechnetium-Sestamibi was performed over 3 days. On the first day, patients were to have a ^99mTechnetium-Sestamibi adenosine supine MPI or ^99mTechnetium-Sestamibi rest scan. […] The second and third days were not necessarily consecutive to the first day.
The stress MPI scans were to be performed 60±10 minutes after the start of adenosine or study drug.
Changes in blood pressure, heart rate, and ECG intervals were computed over time and compared (Regadenoson vs. placebo) using repeated measures, mixed-model ANOVA. The incidence of symptomatic hypotension, systolic blood pressure decreases of >20 mm Hg, ECG abnormalities, and severe or related adverse events was compared using Fisher's exact test. […]

[2] = test system: patients requiring pharmacologic MPI; experiment: Adverse events during MPI protocols; type: in vivo, human; conditions: for frequency of dyspnea: 39 crossover patients
Description: as §1, §2
(§3) Changes in blood pressure, heart rate, and ECG intervals were computed over time and compared (Regadenoson vs. placebo) using repeated measures, mixed-model ANOVA. The incidence of symptomatic hypotension, systolic blood pressure decreases of >20 mm Hg, ECG abnormalities, and severe or related adverse events was compared using Fisher's exact test. The quality of nuclear MPI scans following regadenoson and low-level exercise was compared to adenosine-supine MPI scans of the same subject using the sign test. Radiotracer target-to-background ratios were computed and compared between the two imaging regimens using the Wilcoxon signed ranks test. Semi-quantitative scoring of perfusion defects (Summed Stress Score (SSS), Summed Difference Score (SDS), etc.) was conducted using a 17-segment polar map and the quality of agreement between the two imaging regimens was assessed using […]

[3] = test system: patients requiring pharmacologic MPI; experiment: Hemodynamic, cardiac rhythm and ECG effects of MPI protocols; type: in vivo, human; conditions: for effects on ECG intervals: AdenoSup, RegEx and PlcEx compared; for patients with arrhythmias following both AdenoSup and RegEx / patients with arrhythmias following this protocol only: adverse events or ECG findings; for occurrences of 2nd degree or higher AV block: in vivo
Description: as §1, §2, §3

[4] = test system: patients requiring pharmacologic MPI; experiment: Patient comfort and test protocol preference questionnaires; type: in vivo, human; conditions: for tolerability: 400 mcg bolus during low-level exercise
Description: as §2
Cohen's kappa for the categories 0-3, 4-7, 8-11, and >12 (SSS) and 0-6, 7-13, and >14 (SDS). The number of segments with reversible perfusion defects was defined as the median number across the three readers. Subject comfort and tolerability were assessed using a 4-point scale and the regimens compared using a Cochran-Mantel-Haenszel test of equality of mean scores. Data are expressed as mean (SD) unless otherwise specified. Statistical analyses were conducted using SAS version 9.1. Statistical significance was defined as a p-value of <0.05.

[5] = relative to adenosine; cited from earlier work
[6] = AdenoSup, later randomized to RegEx (n = 39)

SMILES: Nc1ncnc2c1ncn2[C@@H]1O[C@H](CO)[C@@H](O)[C@H]1O [Adenosine, adenosine, reference compound]
- heart-to-gut ratio, mean (SD) [1]: 0.97 (0.34)
- heart-to-liver ratio, mean (SD) [1]: 0.65 (0.26)
- heart-to-liver+gut ratio, mean (SD) [1]: 0.72 (0.18)
- patients in whom reversible perfusion defects were detected ([1]; of 39 patients): 51.3%
- patients in whom reversible perfusion defects were detected ([1]; out of 39 patients): 20
- frequency of dyspnea [2]: 41%
- patients with at least one adverse event ([2]; 62 patients dosed): 95%
- Adverse event: Stomach Discomfort, patients ([2]; AdenoSup, later randomized to PlcEx (n = 21)): 0
- Adverse event: Dizziness, patients [2, 6]: 0
- Adverse event: Pain in Jaw, patients [2, 6]: 0
- patients with severe adverse events ([2]; AdenoSup: of 60 patients): 4
- patients with protocol-defined symptomatic hypotension ([2]; in vivo): One
- patients with severe adverse events ([2]; of 60 patients): 6.7%
- effects on ECG intervals [3]: similar
- patients with arrhythmias following both AdenoSup and RegEx [3]: 2
- patients with arrhythmias following this protocol only [3]: 3
- occurrences of 2nd degree or higher AV block [3]: one
- peak heart rate, increase from resting baseline ([3]; mean (SE)): +21.0 (SE 2.5) bpm

SMILES: CNC(=O)c1cnn(-c2nc(N)c3ncn([C@@H]4O[C@H](CO)[C@@H](O)[C@H]4O)c3n2)c1 [Regadenoson, (1-{9-[(4S,2R,3R,5R)-3,4-dihydroxy-5-(hydroxymethyl)oxolan-2-yl]-6-aminopurin-2-yl}pyrazol-4-yl)-N-methylcarboxamide]
- heart-to-gut ratio, mean (SD) [1]: 1.1 (0.36)
- heart-to-liver ratio, mean (SD) [1]: 0.85 (0.34)
- heart-to-liver+gut ratio, mean (SD) [1]: 0.93 (0.26)
- image quality with respect to subdiaphragmatic interference, side-by-side RegEx vs AdenoSup ([1]; 39 patients, blinded readers): significantly better
- overall image quality, side-by-side comparison RegEx vs AdenoSup ([1]; 39 patients, blinded readers, listed as RegEx): significantly better overall image quality
- patients in whom reversible perfusion defects were detected ([1]; of 39 patients): 64.1%
- patients in whom reversible perfusion defects were detected ([1]; out of 39 patients): 25
- patients reporting being very uncomfortable or extremely uncomfortable ([4]; 4-point scale): No patients
- patients reporting the test as "a little uncomfortable" ([4]; 4-point scale): 41%
- patients reporting the test as "comfortable" ([4]; 4-point scale): 59%
- tolerability [4]: feasible and well tolerated
- tolerability ([4]; listed as RegEx): well tolerated
- frequency of dyspnea [2]: 54%
- patients with severe adverse events ([2]; AdenoSup: of 60 patients): no patient
- Adverse event: Chest Pain, patients ([2]; RegEx (n = 39)): 0
- Adverse event: Pain in Jaw, patients ([2]; RegEx (n = 39)): 0
- Adverse event: Throat tightness, patients ([2]; RegEx (n = 39)): 0
- patients with at least one adverse event ([2]; n=39): 77%
- heart rate over the pre-exercise baseline ([3]; 24 minutes following start of exercise, mean (SE)): +4.6 (SE 1.5) bpm
- effects on ECG intervals [3]: similar
- peak heart rate greater than following AdenoSup ([3]; RegEx vs AdenoSup): 21 bpm
- peak heart rate greater than following PlcEx ([3]; RegEx vs PlcEx): 13 bpm
- systolic blood pressure analyses (change in mean SBP, nadir SBP, decline >20 mm Hg) ([3]; RegEx vs PlcEx and vs AdenoSup): no important differences
- patients with arrhythmias following both AdenoSup and RegEx [3]: 2
- patients with arrhythmias following this protocol only [3]: 1
- heart rate higher than the pre-exercise baseline ([3]; by 24 minutes following the study drug bolus): < 5 bpm
- occurrences of 2nd degree or higher AV block [3]: No occurrences
- peak heart rate, increase from resting baseline ([3]; mean (SE)): 41.9 (SE 2.7) bpm
- increase of mean maximum heart rate over sub-maximal exercise with placebo ([3]; with sub-maximal exercise): 16.5 beats per minute
- mean maximum heart rate increase ([3]; with sub-maximal exercise (Discussion)): +40.2 (1.5) bpm

SMILES: OCCN(CCO)c1nc(N2CCCCC2)c2nc(N(CCO)CCO)nc(N3CCCCC3)c2n1 [dipyridamole]
- half-life [5]: longer than that of adenosine
